In patent publication US5071988A, “Substituted benzoylbenzene-, biphenyl- and 2-oxazole-alkanoic acid derivatives” (American Home Products Corporation, priority 1991, dated 1991):
Like-named read-outs stand apart in the source and are kept apart here.

Columns and labels:
[1] = test system: 6-keto-PGF1α /TxB2 (cyclooxygenase pathway); experiment: in vivo murine zymosan peritonitis assay, 6-keto-PGF1α; parameters: species or system mouse (male CD-1)
Procedure: (§1) The compounds of the invention are evaluated for their ability to inhibit the lipoxygenase and/or cyclooxygenase pathways of arachidonic acid metabolism in the in vivo murine zymosan peritonitis assay.
Male CD-1 mice (8 weeks old) are placed in plastic boxes in groups of six. Animals are injected with 1 mL i.p. of either 1% zymosan in pyrogen free 0.9% saline or saline (unstimulated control). Compounds are dosed orally 1 hour prior to zymosan injection. Twenty minutes after zymosan injection, the mice are asphyxiated by CO2 inhalation and the peritoneal cavity is lavaged with 2 mL ice cold Hanks Balanced Salt Solution (HBSS) without CaCl2, MgSO4. 7H2 O and MgCl2.6H2 O. Peritoneal lavage fluid from each mouse is removed by syringe and placed in 5 mL plastic test tubes put on ice and volume is noted. Preparation of samples for evaluation by ELISA is as follows: Samples are centrifuged at 800 xg for 15 minutes; 1 mL of the supernatant is added to 8 mL ice cold methanol and kept at -70° C. overnight to precipitate protein; and samples are then centrifuged at 800 xg for 15 minutes, followed by a drying procedure in a Savant speed vac concentrator. […]
(§2) The total metabolite level in lavage fluid/mouse is calculated and the significance is determined by a one-way analysis of variance with LSD comparisons to control (p≤0.05). Drug effects are expressed as a percent change from control values.

TxB2 = experiment: reverse passive Arthus pleurisy assay, TxB2; type: in vivo, rat (male Lewis); details: Rattus norvegicus, po, 5 min, read-out: ED50 TxB2
Procedure: (§3) The compounds of the invention are further tested in the reverse passive Arthus pleurisy assay to evaluate their effectiveness in inflammatory mediator release and/or the fluid and cellular phases of an inflammatory response.
(§4) A reverse passive Arthus reaction is induced in the pleural cavity of male Lewis rats (150-200 g; fasted overnight prior to use) by the intravenous administration of bovine serum albumin (BSA; 4 mg/0.2 ml) followed by 30 minutes later by the injection of rabbit anti-BSA (1 mg/0.2 ml; lyophilized IgG fraction; Organon Teknika, West Chester, Pa.) into the right pleural space under halothane anesthesia. Drugs or vehicle (0.5% Tween-80) control are administered orally in a volume of 1 ml/100 g body weight at 1 hour prior to the anti-BSA. Animals are sacrificed at either the time of peak eicosanoid production (i.e. 5 minutes after anti-BSA for immunoreactive TxB2 10 minutes for immunoreactive LTB4, 20 minutes for immunoreactive LTC4) or at the time of peak neutrophil infiltration (4 hours after anti-BSA) by CO2 inhalation. The pleural cavity is then exposed, the fluid exudate removed by gentle vacuum aspiration and the volume of exudate is recorded. For the determination of cellular infiltration, the pleural cavity is rinsed with 3 ml of 0.1% EDTA in sterile saline, and the recovered wash is pooled with the exudate. Cell number is determined on a model ZBI Coulter counter. For determination of eicosanoid production, undiluted pleural exudate is microfuged and the supernatant is extracted with ethanol (8-10 times volume). Extracts are either stored at -20° C., or are evaporated to dryness under a stream of N2 and reconstituted in radioimmunoassay (RIA) buffer.
(§5) Eicosanoids are quantitated by RIA according to the procedure specified by the RIA kit manufacturer (Advanced Magnetics, Cambridge, Mass.). Briefly, 100 μl of ^3 H-labeled eicosanoid and 100 μl of specific antibody are sequentially added to 100 μl of extracted pleural exudate in BGG -phosphate buffer which contains 0.01M phosphate, 0.1% bovine gamma globulin and 0.1% sodium azide at pH 7.0. Antibody-bound eicosanoid is separated from unbound eicosanoid by the addition of 750 μl of dextran (0.4%)-coated charcoal (0.4% Norit A) containing 0.1% sodium azide. The mixture is centrifuged at 2000 RPM at 5° C. for 15 minutes to pellet the charcoal and adsorbed unbound eicosanoid. Antibody-bound labeled eicosanoid is quantitated by counting in a liquid scintillation counter, and is correlated to concentration by a standard curve.
(§6) Inflammatory cells are expressed as 10^6 cells/ml, pleural exudate is expressed as ml of fluid, and the amount of eicosanoids in the pleural cavity is expressed as ng/ml of exudate. Mean±S.E.M. is determined for each group. Percent inhibition (% I) of cell number, exudate volume and eicosanoid production is calculated for vehicle-treated control groups, and the responses in drug-treated rats are then expressed as the mean % I of the control. […] Exp. Ther., 96, 99-113 (1949).

LTB4 = experiment: reverse passive Arthus pleurisy assay, LTB4; type: in vivo, rat (male Lewis); details: Rattus norvegicus, po, 1 hour prior to anti-BSA; standard drugs; read-out: ED50 LTB4
Procedure: as §3, §4, §5, §6

Fluid Exudation = experiment: reverse passive Arthus pleurisy assay, fluid exudation; type: in vivo, rat (male Lewis); details: Rattus norvegicus, po, 1 hour prior to anti-BSA; standard drugs
Procedure: as §3, §4, §6

Cellular Influx = experiment: reverse passive Arthus pleurisy assay, cellular influx; type: in vivo, rat (male Lewis); details: Rattus norvegicus, po, 4 h, 1 hour prior to anti-BSA; standard drugs
Procedure: as §3, §4, §6

[2] = test system: LTB4 synthesis by rat glycogen-elicited polymorphonuclear leukocytes (PMN); experiment: inhibition of LTB4 synthesis by rat glycogen-elicited polymorphonuclear leukocytes (PMN); type: cell-based, rat (female Wistar); details: Leukocyte, at 10 μM
Description: This is especially true with respect to 5,12-diHETE, which is also denoted as LTB4 [see Ford-Hitchinson, J. Roy. […] Med., 74, 831 (1981)]. Compounds which inhibit the PLA2 -mediated release of arachidonic acid thereby effectively prevent the oxidation of arachidonic acid to the various leukotriene products via the lipoxygenase cascade. Accordingly, the specificity of action of PLA2 inhibitors can be determined by the activity of test compounds in this assay, which measures the ability of compounds to inhibit the synthesis of LTB4 by rat glycogen-elicited polymorphonuclear leukocytes (PMN) in the presence of exogenous substrate.
The assay is carried out as follows:
Rat polymorphonuclear leukocytes (PMNs) are obtained from female Wistar rats (150-200 g) which receive an injection of 6% glycogen (10 ml i.p.). Rats are sacrificed 18-24 hours post injection by CO2 asphyxiation and the elicited cells are harvested by peritoneal lavage using physiological saline (0.9% NaCl). The exudate is centrifuged at 400 xg for 10 minutes. The supernatant fluid is discarded and the cell pellet is resuspended to a concentration of 2.0×10^7 cells/mL in HBSS containing Ca^++ and Mg^++ and 10 μM L-cysteine.
To 1 mL aliquots of cell suspension, test drugs or vehicle are added, then preincubated at 37° C. for 10 minutes. A23187 (1 μM), [^3 H]-AA (3.0 μCi/mL) and unlabeled AA (1 μM) are then added and the samples are further incubated for 10 minutes. The reaction is terminated by centrifugation and pelleting cells. Supernatants are then analyzed by HPLC analysis on a 15 cm×4.6 mm ID supelcosil LC-18 (Supelco)(3M) column, using a two solvent system at a flow rate of 1.4 mL total flow as follows:
Gradient: (system is equilibrated with Solvent A)
Percent solvent changes are accomplished in a linear fashion.
Injections: 140 μL of each supernatant is injected directly onto column and ^3 H arachidonic acid metabolites are monitored using an on-line radioactivity detector (Ramona, IN/US, Fairfield, N.J.).
Standards: 10^4 -2.0×10^4 dpm of eicosanoids of interest are injected in 90 μL EtOH cocktail.
Results are expressed as percent inhibition at a given compound dose or as an IC50 value.

[3] = test system: LTC4 (lipoxygenase pathway); experiment: in vivo murine zymosan peritonitis assay, LTC4; parameters: species or system mouse (male CD-1); details: for ED50 LTC4: p.o., 1 hour prior to zymosan, standard drugs
Procedure: as §1
Male CD-1 mice (8 weeks old) are placed in plastic boxes in groups of six. Animals are injected with 1 mL i.p. of either 1% zymosan in pyrogen free 0.9% saline or saline (unstimulated control). Compounds are dosed orally 1 hour prior to zymosan injection. Twenty minutes after zymosan injection, the mice are asphyxiated by CO2 inhalation and the peritoneal cavity is lavaged with 2 mL ice cold Hanks Balanced Salt Solution (HBSS) without CaCl2, MgSO4. 7H2 O and MgCl2.6H2 O. Peritoneal lavage fluid from each mouse is removed by syringe and placed in 5 mL plastic test tubes put on ice and volume is noted. Preparation of samples for evaluation by ELISA is as follows: Samples are centrifuged at 800 xg for 15 minutes; 1 mL of the supernatant is added to 8 mL ice cold methanol and kept at -70° C. overnight to precipitate protein; and samples are then centrifuged at 800 xg for 15 minutes, followed by a drying procedure in a Savant speed vac concentrator. The samples are reconstituted with 1 mL ice cold ELISA buffer and stored at -70° C. until assayed. The assay for eicosanoids (LTC4 and 6-keto-PGF1α) is performed according to conventional ELISA procedures.
Compounds to be tested orally are suspended in 0.5% Tween 80. Compounds to be tested intraperitoneally are suspended in 0.5% methylcellulose in 0.9% saline.
as §2

NC1=NN(c2cccc(C(F)(F)F)c2)CC1 [BW755C]
ED50 ([1]; Mus musculus, po, 20 min, 1 hour prior to zymosan, standard drugs): 22 mg/kg
ED50 (TxB2; p.o., 1 hour prior to anti-BSA, standard drugs): 18 mg/kg
ED50 (LTB4): 23 mg/kg
ED30 (Fluid Exudation): 14 mg/kg
ED30 (Cellular Influx): 28 mg/kg

O=C(O)CCc1nc(-c2ccc(OCc3ccc4ccccc4n3)cc2)c(-c2ccccc2)o1 [Example 5, 5-Phenyl-4-[4-(2-Quinolinylmethoxy)phenyl]-2-oxazole propanoic acid]
inhibition at 10 µM [2]: 96%
% Inhibition LTC4 ([3]; 10 mg/kg i.p.): 86%
% Inhibition 6-keto-PGF ([1]; 10 mg/kg i.p., negative values denote potentiation): -27%

CC(C)Cc1ccc(C(C)C(=O)O)cc1 (centres unmarked) [Ibuprofen]
ED50 LTC4 [3]: Not Active

COc1ccc2c(c1)c(CC(=O)O)c(C)n2C(=O)c1ccc(Cl)cc1 [Indomethacin]
ED50 LTC4 [3]: Not Active
ED50 (TxB2): 0.16 mg/kg
